In patent publication US8163776B2, “Method of immunomodulation using thione-forming disulfides” (Grassetti family Trust, priority 2001, dated 2012):
Several values for one entry are separate records, joined by “and”; a condition that tells them apart may be missing. Equal entries are not always repeated.

What was measured:
[1] = Weight gain of mice on CPDS diet; format: in vivo, BALB/c mice
Description: To prepare a CPDS diet, a total of 3 kilos of Standard Purina chow was reduced to powder using a grinder. About 12 g of CPDS was added to the powder and thoroughly mixed, re-hydrated and reconstituted into pellets. Pellets were allowed to dry overnight.
Male adult BALB/c mice were weighed and randomly divided to form the experimental groups. Mice were allowed to acclimatized 3 days prior to the beginning of the experiments. Mice from the control normal diet groups were fed ad libitum with standard Purina mouse chow. Mice from the CPDS treated groups were fed ad libitum with the CPDS preparation. The amount of food given was weighted and recorded to allow the evaluation of the CPDS dosage.
The weight gained by each mice was evaluated weekly and prior to sacrifice. Mice were sacrificed by overexposure to CO2. The spleen from each mouse was collected under sterile conditions, transferred into HBSS buffered solution and kept on ice until used for other studies disclosed. Experiments were performed on the same day.

[2] = tested on: antibody production to keyhole limpet hemocyanin (KLH); assay: Humoral response to KLH immunization, immunodot blot; format: in vivo, BALB/c mice
Description: To perform KLH immunization, KLH was prepared in sterile D-PBS at a concentration of 150 μg in 0.1 ml. Animals were injected 0.1 ml of the preparation subcutaneously. After 15 days and just before sacrifice, a blood sample was collected from each mouse by cardiac puncture. Serum was obtained by centrifugation, aliquoted and frozen (−20° C.) until used.
Immunodot blot assay was used to assess antibody production. Hybond-ECL membrane was used in the immunodot blot assay. A volume of 2 μl of different concentrations (0, 10, 50, 250 μg/ml) of KLH antigen was placed on the dry membrane. Antigen dots were allowed to dry overnight at 4° C. Membrane was blocked with a dry milk solution for 1 hour. Two μl of the antiserum diluted ½, ¼, 1/16, 1/32, 1/64, 1/128 and undiluted was put on the blot and incubated for 1 hour. The membrane was washed with TES buffer solution 3 times. Goat anti-mouse IgG antibodies coupled with horseradish peroxidase were put on the blot and incubated for 1 hour. The membrane was washed with TBS buffer solution 3 times. […] Revelation time was 1 minute. The membrane was exposed for 18 hours to film.
The lower serum dilution where an antibody response is apparent was chosen to calculate antibody titer. The antibody titer corresponded to the inverse of the dilution. The titer was converted to log2, e.g., 8=3 (log2). Results were compared and Student's T test was performed between the control group and the treated group. The p value was calculated for statistical significance.
For this experiment, animals were treated with CPDS for 30 days, immunized subcutaneously with keyhole limpet hemocyanin (KLH) and treated an additional 15 days, at which point blood was collected for antibody detection. […] The antibody titer to KLH was 1/4.29 (2.13 log2) for control group and 1/2.00 (1.00 log2) for CPDS-treated group. The decrease in the antibody production may be partially related to the significant decrease in the B cell population observed in the immunophenotyping results. However, no loss of reactivity was observed from the lymphoproliferative assay when B cells were stimulated with LPS.

[3] = tested on: feline immunodeficiency virus (FIV); assay: CPDS in an FIV-infected cat (Example 8); format: in vivo
Description: A cat infected with feline immunodeficiency virus (FIV) was given 140 mg CPDS each morning. The CPDS was mixed with the cat's chow (food). The 140 mg CDPS dosage regimen was continued for 2 weeks. At this time, the cat's overall conditions (thin facial hair, dull eyes, excorations of the skin, appetite, general behavior) improved. After the 2 week timepoint, the dosage regimen was increased to 140 mg CPDS every morning and night (280 mg CPDS daily), mixed in the cat chow. […] The cat's eyes were bright, facial hair was thick, appearance of hair was shiny, and the cat regained its appetite and gained 300 g in weight.

[4] = tested on: feline immunodeficiency virus (FIV); assay: CPDS in an FIV-positive cat with FIDS symptoms (Example 10); format: in vivo
Source text: A very ill, young, spayed male cat ws presented with symptoms of feline immunodeficiency syndrome (FIDS). He had fever, diarrhea, and his glands were swollen. His coat was dull and the cat was listless.
His blood tested positive for feline immunodeficiency syndrome (FIV), as determined by ELISA testing with feline immunodeficiency virus antibody from Indexx Laboratories (Westbrook, Me.). The cat's weight upon presentation was 9.5 lbs.
Treatment of the cat with CPDS commenced the same day with a daily dose of 280 mg CPDS in the cat's diet. The regimen was continued for 30 days. […] The hair on the cat's muzzle and back was still thin. CPDS treatment was continued at 140 mg/day for another 60 days. […] His coat was rich and shiny, his eyes became bright, and his behavior was normal for a spayed male cat. The cat's weight after 60 days of treatment was 10.2 lbs, a gain of about 300 grams.

[5] = Group 2 (30 days CPDS diet), group Mean ± S.D.
[6] = Group 2 (30 days CPDS diet), individual mice
[7] = Group 4 (45 days CPDS diet), group Mean ± S.D.
[8] = Group 4 (45 days CPDS diet), individual mice
[9] = Group 6 (6 days CPDS diet), group Mean ± S.D.
[10] = Group 6 (6 days CPDS diet), individual mice
[11] = FIV-positive cat, end of thirty days at 280 mg CPDS daily

- Animal weight, Day 0 [1, 5]: 14.87 ± 1.18 g
- Animal weight, Day 6 [1, 5]: 17.89 ± 1.2 g
- Animal weight, Day 14 [1, 5]: 19.36 ± 0.9 g
- Animal weight, Day 21 [1, 5]: 20.50 ± 0.9 g
- Animal weight, Day 28 [1, 5]: 22.04 ± 1.0 g
- Animal weight, Day 0 [1, 7]: 14.57 ± 0.8 g
- Animal weight, Day 6 [1, 7]: 17.74 ± 1.0 g
- Animal weight, Day 14 [1, 7]: 18.92 ± 1.1 g
- Animal weight, Day 21 [1, 7]: 19.86 ± 1.1 g
- Animal weight, Day 28 [1, 7]: 21.60 ± 1.2 g
- Animal weight, Day 35 [1, 7]: 22.19 ± 1.1 g
- Animal weight, Day 45 [1, 7]: 22.78 ± 1.1 g
- Animal weight, Day 0 [1, 9]: 15.15 ± 1.1 g
- Animal weight, Day 6 [1, 9]: 18.40 ± 0.7 g
- Animal weight, Day 0 [1, 10]: 13.90 g and 16.04 g and 15.50 g
- Animal weight, Day 6 [1, 10]: 17.60 g and 19.18 g and 18.43 g
- Course of animal weight (in words) ([1]; group fed CPDS diet for 45 days, food intake constant): stabilized after day 35
- Weight gain (in words) ([1]; groups fed CPDS diet for 6 and 30 days): constant and normal
Compound: O=C(O)c1ccc(SSc2ccc(C(=O)O)cn2)nc1 [CPDS, 6,6′-dithiodinicotinic acid]
- Animal weight, Day 0 [1, 6]: 15.87 g and 15.18 g and 12.76 g and 15.67 g and 15.69 g and 15.29 g and 15.25 g and 13.28 g
- Animal weight, Day 6 [1, 6]: 18.64 g and 19.84 g and 15.20 g and 18.31 g and 18.66 g and 18.54 g and 17.98 g and 16.92 g
- Animal weight, Day 14 [1, 6]: 19.66 g and 20.46 g and 17.47 g and 19.96 g and 19.78 g and 19.09 g and 19.84 g and 18.65 g
- Animal weight, Day 21 [1, 6]: 20.10 g and 21.36 g (2×) and 18.72 g and 21.20 g and 20.58 g and 20.79 g and 19.87 g
- Animal weight, Day 28 [1, 6]: 21.96 g and 22.76 g and 19.99 g and 22.98 g and 22.80 g and 22.31 g and 22.57 g and 20.94 g
- Animal weight, Day 0 [1, 8]: 13.58 g and 16.07 g and 14.28 g and 13.75 g and 14.89 g and 15.10 g and 13.67 g and 15.20 g
- Animal weight, Day 6 [1, 8]: 17.25 g and 18.57 g and 17.03 g and 16.46 g and 17.79 g and 18.38 g and 16.98 g and 19.46 g
- Animal weight, Day 14 [1, 8]: 18.57 g (2×) and 20.58 g and 18.25 g and 17.66 g and 18.83 g and 18.02 g and 20.86 g
- Animal weight, Day 21 [1, 8]: 19.72 g and 21.59 g and 19.22 g and 18.38 g and 19.40 g and 19.35 g and 19.45 g and 21.74 g
- Animal weight, Day 28 [1, 8]: 21.40 g (2×) and 23.72 g and 20.35 g and 20.18 g and 21.41 g and 21.14 g and 23.19 g
- Animal weight, Day 35 [1, 8]: 21.82 g and 24.00 g and 20.91 g and 20.95 g and 22.47 g and 21.39 g and 22.28 g and 23.68 g
- Animal weight, Day 45 [1, 8]: 22.71 g and 24.66 g and 20.96 g and 21.78 g and 23.15 g and 22.10 g and 23.09 g and 23.80 g
- Weight gain vs group on normal Purina chow (in words) ([1]; group fed CPDS for 45 days, p=0.01432): statistically significant lower weight gain
- Humoral response to KLH, variation (%) ([2]; Group 4, 45 days on CPDS diet vs Group 3): −52.94%
- Serum dilution (lowest with apparent antibody response to KLH) ([2]; Group 4, 45 days on CPDS diet, KLH s.c. at day 30, serum 15 days later, individual mice): 1/4 (4×) and 0 (4×)
- dilution log 2 (antibody titer to KLH) ([2]; Group 4, 45 days on CPDS diet, Mean ± S.D.): 1.00 log 2 and 1.00 ± 1.07 log 2
- dilution log 2 (antibody titer to KLH) ([2]; Group 4, 45 days on CPDS diet, individual mice): 2 log 2 (4×) and 0 log 2 (4×)
- Cat's overall conditions (facial hair, eyes, skin, appetite, general behavior) ([3]; FIV-infected cat, 140 mg CPDS each morning in chow for 2 weeks): improved
- Physical condition, appearance and behavior ([3]; FIV-infected cat, 280 mg CPDS daily for a total of 59 days): improved physical condition, improved overall physical appearance, and improved behavior
- Weight gained by the cat ([3]; FIV-infected cat, after 30 days): 300 g
- Cat's overall conditions ([3]; FIV-infected cat, after 30 days, 280 mg CPDS daily after week 2): overall conditions had improved
- Health of the cat at follow-up ([3]; after treatment for 100 days and a year and half after treatment): appeared entirely healthy
- Cat's health ([4]; FIV-positive cat, 280 mg CPDS daily in diet, after a few days): showed improvement
- Symptoms (fever, diarrhea, swollen glands) [4, 11]: fever had subsided, the diarrhea was gone, its glands were no longer swollen
- Test for the FIDS antibody [4, 11]: still tested positive
- Overall state of the cat ([4]; after 30 days at 280 mg/day and another 60 days at 140 mg/day): appeared to be healed
- Weight gain of the cat ([4]; after 60 days of treatment vs presentation): about 300 grams
- Cat's weight after treatment ([4]; after 60 days of treatment, 9.5 lbs upon presentation): 10.2 lbs
